Reference: patent publication US9969699B2, “Cancer cell growth inhibitor, anticancer agent, and method for screening same, as well as novel compound” (Microbial Chemistry Research Foundation, priority 2014, dated 2018)

Tests used:
NIH3T3/EGFR vIII cells = assay: 3D cell culture step (environment without adhesion scaffold), proliferation of NIH3T3/EGFR vIII cells; format: cell-based, mouse; settings: for IC50: Mus musculus, 72 h, NIH3T3/EGFR vIII cells, Ultra Low Attachment plate, 3 days, […]-GLO
NIH3T3 cells = assay: 2D cell culture step (environment with adhesion scaffold), proliferation of NIH3T3 cells; format: cell-based; settings: Mus musculus, 72 h; NIH3T3 cells, TC-treated plate, 3 days, […]-GLO; read-out: IC50 2D cell culture step
Description: Note that, as a negative control, the NIH3T3 cells at 2×10^3 cells/100 were seeded to the same plate in a volume of 100 μL per well and cultured at 37° C. in the presence of 5% CO2 for 3 days without the addition of the test substance.
Note that, Dulbecco's Modified Eagle Medium supplemented with 5% FBS was used for the culture.
A cell proliferation inhibition rate in the 2D cell culture step was calculated according to (Expression 2) below. Cell proliferation inhibition rate(%)=(1−D/E)×100 (Expression 2)
In the (Expression 2), D denotes the number of viable NIH3T3 cells when the test substance was added, and E denotes the number of viable NIH3T3 cells when the test substance was not added.

NIH3T3/EGFRWT cells = assay: 3D cell culture step, NIH3T3/EGFRWT cells in EGF-including medium; format: cell-based, mouse; settings: Test Example 3, NIH3T3/EGFRWT cells, EGF-including medium
Description: (§1) After the 3 days of culture, the number of viable cells was counted by […]-GLO (trademark) Luminescent Cell Viability Assay (available from Promega), which was a method for quantitating ATP in viable cells. A cell proliferation inhibition rate in the 3D cell culture step was calculated according to (Expression 3) below. Cell proliferation inhibition rate(%)=(1−X/Y)×100 (Expression 3)
(§2) In the (Expression 3), X denotes the number of viable cells when the test substance was added, and Y denotes the number of viable cells when the test substance was not added.

U251 cells = assay: 3D cell culture step, EGFR vIII gene non-expressing brain tumor cells U251; format: cell-based; settings: Test Example 3, U251 cells
Description: (§3) The following 3 brain tumor cells were used as the EGFR vIII gene non-expressing cells. • U251 cells (available from ATCC) • U87MG cells (available from ATCC) • KS-1 cells (available from ATCC) <3D Cell Culture Step>
as §1, §2

U87MG cells = assay: 3D cell culture step, EGFR vIII gene non-expressing brain tumor cells U87MG; format: cell-based; settings: Test Example 3, U87MG cells
Description: as §3, §1, §2

KS-1 cells = assay: 3D cell culture step, EGFR vIII gene non-expressing brain tumor cells KS-1; format: cell-based; settings: Test Example 3, KS-1 cells
Description: as §3, §1, §2

[1] = Acute toxicity test, intraperitoneal administration; format: in vivo, ICR mice; settings: for Organ weight Heart / Organ weight Kidney (Left) / Organ weight Kidney (Right) / Organ weight Liver / Organ weight Lung / Organ weight Spleen / Organ weight Thymus: two weeks after
From the text: Two-weeks after the compounds represented by the Structural Formula (1) at the above concentrations were intraperitoneally administered, the mice were dissected and organs thereof were weighed.
Two-weeks after the compounds represented by the Structural Formula (8) at the above concentrations were intraperitoneally administered, the mice were dissected and organs thereof were weighed.

[2] = Acute toxicity test, oral administration; format: in vivo, ICR mice; settings: for Organ weight Heart / Organ weight Kidney (Left) / Organ weight Kidney (Right) / Organ weight Liver / Organ weight Lung / Organ weight Spleen / Organ weight Thymus: two weeks after
From the text: Two-weeks after the compounds represented by the Structural Formula (1) at the above concentrations were orally administered, the mice were dissected and organs thereof were weighed.
Two-weeks after the compounds represented by the Structural Formula (8) at the above concentrations were orally administered, the mice were dissected and organs thereof were weighed.

[3] = system: NIH3T3/EGFR vIII cell-transplanted tumor
[4] = 0.098 mg/kg/0.2 mL, intraperitoneally once
[5] = 0.195 mg/kg/0.2 mL, intraperitoneally once
[6] = 0.39 mg/kg/0.2 mL, intraperitoneally once
[7] = 0.78 mg/kg/0.2 mL, intraperitoneally once
[8] = 1.56 mg/kg/0.2 mL, intraperitoneally once
[9] = 3.125 mg/kg/0.2 mL, intraperitoneally once
[10] = 6.25 mg/kg/0.2 mL, intraperitoneally once
[11] = 12.5 mg/kg/0.2 mL, intraperitoneally once
[12] = 25 mg/kg/0.2 mL, intraperitoneally once
[13] = 50 mg/kg/0.4 mL, intraperitoneally once
[14] = 0.098 mg/kg/0.2 mL, orally once
[15] = 30 mg/kg intraperitoneally once a day, day 1 to day 17

COc1cc2ncnc(Nc3cccc(Cl)c3)c2cc1OC [AG1478, reference compound]
IC50 (NIH3T3/EGFR vIII cells): 1000 nM | inhibiting activity against scaffold-independent proliferation capacity (NIH3T3/EGFR vIII cells; Test Example 3, NIH3T3/EGFR vIII cells): exhibited an inhibiting activity | inhibition of proliferation of NIH3T3 cells expressing EGFR mutant vIII in the 3D cell culture step (NIH3T3/EGFR vIII cells; result in words from Table 1): inhibited proliferation | IC50 (NIH3T3 cells): 50000 nM | inhibiting activity against scaffold-independent proliferation capacity (NIH3T3/EGFRWT cells): exhibited an inhibiting activity | inhibiting activity against scaffold-independent proliferation capacity (U251 cells): did not exhibit an inhibiting activity | inhibiting activity against scaffold-independent proliferation capacity (U87MG cells): did not exhibit an inhibiting activity | inhibiting activity against scaffold-independent proliferation capacity (KS-1 cells): did not exhibit an inhibiting activity

Nc1ccc(I)cc1-c1nc2ccccc2[nH]c1=O [Structural Formula (8), 3-(2-Amino-5-iodophenyl)-2(1H)-quinoxalinone]
cell proliferation inhibiting activity compared with AG1478, Gefitinib and Erlotinib (NIH3T3/EGFR vIII cells; 3D cell culture step): more significant cell proliferation inhibiting activity | IC50 (NIH3T3/EGFR vIII cells): 10 nM | IC50 (NIH3T3 cells): > 10000 nM | Organ weight Heart [1, 4]: 118.0 mg | Organ weight Kidney (Left) [1, 4]: 160.0 mg | Organ weight Kidney (Right) [1, 4]: 172.0 mg | Organ weight Liver [1, 4]: 1476.0 mg | Organ weight Lung [1, 4]: 165.0 mg | Organ weight Spleen [1, 4]: 176.0 mg | Organ weight Thymus [1, 4]: 59.0 mg | Organ weight Heart [1, 5]: 106.0 mg | Organ weight Kidney (Left) [1, 5]: 174.0 mg | Organ weight Kidney (Right) [1, 5]: 181.0 mg | Organ weight Liver [1, 5]: 1442.0 mg | Organ weight Lung [1, 5]: 166.0 mg | Organ weight Spleen [1, 5]: 98.0 mg | Organ weight Thymus [1, 5]: 66.0 mg | Organ weight Heart [1, 6]: 108.0 mg | Organ weight Kidney (Left) [1, 6]: 146.0 mg | Organ weight Kidney (Right) [1, 6]: 158.0 mg | Organ weight Liver [1, 6]: 1234.0 mg | Organ weight Lung [1, 6]: 151.0 mg | Organ weight Spleen [1, 6]: 69.0 mg | Organ weight Thymus [1, 6]: 47.0 mg | Organ weight Heart [1, 7]: 110.0 mg | Organ weight Kidney (Left) [1, 7]: 177.0 mg | Organ weight Kidney (Right) [1, 7]: 181.0 mg | Organ weight Liver [1, 7]: 1324.0 mg | Organ weight Lung [1, 7]: 163.0 mg | Organ weight Spleen [1, 7]: 127.0 mg | Organ weight Thymus [1, 7]: 60.0 mg | Organ weight Heart [1, 8]: 125.0 mg | Organ weight Kidney (Left) [1, 8]: 161.0 mg | Organ weight Kidney (Right) [1, 8]: 179.0 mg | Organ weight Liver [1, 8]: 1738.0 mg | Organ weight Lung [1, 8]: 183.0 mg | Organ weight Spleen [1, 8]: 158.0 mg | Organ weight Thymus [1, 8]: 94.0 mg | Organ weight Heart [1, 9]: 120.0 mg | Organ weight Kidney (Left) [1, 9]: 172.0 mg | Organ weight Kidney (Right) [1, 9]: 175.0 mg | Organ weight Liver [1, 9]: 1710.0 mg | Organ weight Lung [1, 9]: 165.0 mg | Organ weight Spleen [1, 9]: 132.0 mg | Organ weight Thymus [1, 9]: 60.0 mg | Organ weight Heart [1, 10]: 120.0 mg | Organ weight Kidney (Left) [1, 10]: 158.0 mg | Organ weight Kidney (Right) [1, 10]: 178.0 mg | Organ weight Liver [1, 10]: 1641.0 mg | Organ weight Lung [1, 10]: 168.0 mg | Organ weight Spleen [1, 10]: 124.0 mg | Organ weight Thymus [1, 10]: 53.0 mg | Organ weight Heart [1, 11]: 108.0 mg | Organ weight Kidney (Left) [1, 11]: 150.0 mg | Organ weight Kidney (Right) [1, 11]: 149.0 mg | Organ weight Liver [1, 11]: 1356.0 mg | Organ weight Lung [1, 11]: 165.0 mg | Organ weight Spleen [1, 11]: 111.0 mg | Organ weight Thymus [1, 11]: 78.0 mg | Organ weight Heart [1, 12]: 108.0 mg | Organ weight Kidney (Left) [1, 12]: 149.0 mg | Organ weight Kidney (Right) [1, 12]: 155.0 mg | Organ weight Liver [1, 12]: 1564.0 mg | Organ weight Lung [1, 12]: 155.0 mg | Organ weight Spleen [1, 12]: 138.0 mg | Organ weight Thymus [1, 12]: 103.0 mg | Organ weight Heart [1, 13]: 120.0 mg | Organ weight Kidney (Left) [1, 13]: 150.0 mg | Organ weight Kidney (Right) [1, 13]: 152.0 mg | Organ weight Liver [1, 13]: 1551.0 mg | Organ weight Lung [1, 13]: 166.0 mg | Organ weight Spleen [1, 13]: 98.0 mg | Organ weight Thymus [1, 13]: 66.0 mg | abnormalities ([1]; intraperitoneally once, any doses (0.098 to 50 mg/kg)): no abnormalities were found at any doses | autopsy findings ([1]; mouse, in vivo, ip): slightly lighter livers, and slightly lighter or heavier spleens were found at some doses | Organ weight Heart [2, 14]: 124.0 mg | Organ weight Kidney (Left) [2, 14]: 165.0 mg | Organ weight Kidney (Right) [2, 14]: 181.0 mg | Organ weight Liver [2, 14]: 1322.0 mg | Organ weight Lung [2, 14]: 182.0 mg | Organ weight Spleen [2, 14]: 125.0 mg | Organ weight Heart ([2]; 6.25 mg/kg/0.2 mL, orally once): 119.0 mg | Organ weight Lung ([2]; 6.25 mg/kg/0.2 mL, orally once): 171.0 mg | Organ weight Thymus ([2]; 6.25 mg/kg/0.2 mL, orally once): 74.0 mg | Organ weight Heart ([2]; 12.5 mg/kg/0.2 mL, orally once): 111.0 mg | Organ weight Kidney (Left) ([2]; 12.5 mg/kg/0.2 mL, orally once): 150.0 mg | Organ weight Kidney (Right) ([2]; 12.5 mg/kg/0.2 mL, orally once): 167.0 mg | Organ weight Liver ([2]; 12.5 mg/kg/0.2 mL, orally once): 1375.0 mg | Organ weight Lung ([2]; 12.5 mg/kg/0.2 mL, orally once): 159.0 mg | Organ weight Spleen ([2]; 12.5 mg/kg/0.2 mL, orally once): 168.0 mg | Organ weight Thymus ([2]; 12.5 mg/kg/0.2 mL, orally once): 90.0 mg | Organ weight Heart ([2]; 25 mg/kg/0.2 mL, orally once): 110.0 mg | Organ weight Kidney (Left) ([2]; 25 mg/kg/0.2 mL, orally once): 140.0 mg | Organ weight Kidney (Right) ([2]; 25 mg/kg/0.2 mL, orally once): 152.0 mg | Organ weight Liver ([2]; 25 mg/kg/0.2 mL, orally once): 1184.0 mg | Organ weight Lung ([2]; 25 mg/kg/0.2 mL, orally once): 163.0 mg | Organ weight Spleen ([2]; 25 mg/kg/0.2 mL, orally once): 92.0 mg | Organ weight Thymus ([2]; 25 mg/kg/0.2 mL, orally once): 39.0 mg | Organ weight Heart ([2]; 50 mg/kg/0.4 mL, orally once): 116.0 mg | Organ weight Kidney (Left) ([2]; 50 mg/kg/0.4 mL, orally once): 158.0 mg | Organ weight Kidney (Right) ([2]; 50 mg/kg/0.4 mL, orally once): 175.0 mg | Organ weight Liver ([2]; 50 mg/kg/0.4 mL, orally once): 1331.0 mg | Organ weight Lung ([2]; 50 mg/kg/0.4 mL, orally once): 176.0 mg | Organ weight Spleen ([2]; 50 mg/kg/0.4 mL, orally once): 133.0 mg | Organ weight Thymus ([2]; 50 mg/kg/0.4 mL, orally once): 87.0 mg | autopsy findings ([2]; mouse, in vivo, po): slightly lighter livers and slightly heavier spleens were found at some doses | abnormalities ([2]; orally once, any doses (0.098 to 50 mg/kg)): no abnormalities were found at any doses | tumor weight versus negative control group ([3]; 30 mg/kg intraperitoneally once a day, 17 days after transplantation, t<0.05): significantly different | mouse body weight (weight loss) [3, 15]: weight loss was not observed | toxicity [3, 15]: no toxicity | tumor proliferation inhibiting activity [3, 15]: exhibited the tumor proliferation inhibiting activity | tumor proliferation inhibiting activity compared with Gefitinib ([3]; 30 mg/kg intraperitoneally vs Gefitinib 100 mg/kg orally): comparable
